In patent publication US12227482B2, “Compounds and compositions for the treatment of cancer” (The Regents of the University of California, priority 2016, dated 2025):

Experiments:
Type in all cases: cell-based
Conditions in all cases: 72 hours treatment, cell survival by CellTiter-Glo, 2% fetal bovine serum
A549 cells = assay: Cell viability (CellTiter-Glo ATP content) in A549 cells
Outline: (§1)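 Cells plated at 5,000 per well in antibiotic-free RPMI with 2% FBS, treated next day in triplicate with increasing compound doses (final DMSO 0.5%) for 72 hours. Viability read as ATP content by CellTiter-Glo luminescence; percent survival relative to vehicle control set as 100%.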

LOX cells = assay: Cell viability (CellTiter-Glo ATP content) in LOX cells
Outline: as §1

MelJuSo cells = assay: Cell viability (CellTiter-Glo ATP content) in MelJuSo cells
Outline: as §1

SMILES	IC50 (A549 cells; Homo sapiens, A549, 72 h) [µM]	IC50 (LOX cells; LOX, 72 h) [µM]	IC50 (MelJuSo cells; Homo sapiens, MEL-JUSO) [µM]	IC50 (A549 cells) [µM]	IC50 (LOX cells) [µM]	IC50 (MelJuSo cells) [µM]
COC(=O)CNC(=O)C1(C)C(c2ccoc2)C(c2ccc(F)cc2F)=NN1c1ccc(F)cc1F (stereo not drawn) [Compound 131, methyl 2-(1,3-bis(2,4-difluorophenyl)-4-(furan-3-yl)-5-methyl-4,5-dihydro-1H-pyrazole-5-carboxamido)acetate]	0.5 to 1	0.5 to 1	0.25 to 0.5			
COC(=O)[C@H](C)NC(=O)C1(C)C(c2ccoc2)C(c2ccc(F)cc2F)=NN1c1ccc(F)cc1F (stereo partly drawn) [Compound 132, (2S)-methyl 2-(1,3-bis(2,4-difluorophenyl)-4-(furan-3-yl)-5-methyl-4,5-dihydro-1H-pyrazole-5-carboxamido)propanoate]	> 2	> 2	> 2			
CC(C)(CO)CCCNC(=O)C1(C)C(c2ccc(Cl)o2)C(c2ccc(F)cc2F)=NN1c1ccc(F)cc1F (stereo not drawn) [Compound 133, 4-(5-chlorofuran-2-yl)-1,3-bis(2,4-difluorophenyl)-N-(5-hydroxy-4,4-dimethylpentyl)-5-methyl-4,5-dihydro-1H-pyrazole-5-carboxamide]	< 0.25	< 0.25	< 0.25			
COC(=O)CNC(=O)C1(C)C(c2ccc(Cl)o2)C(c2ccc(F)cc2F)=NN1c1ccc(F)cc1F (stereo not drawn) [Compound 134, methyl 2-(4-(5-chlorofuran-2-yl)-1,3-bis(2,4-difluorophenyl)-5-methyl-4,5-dihydro-1H-pyrazole-5-carboxamido)acetate]				< 0.25	< 0.25	< 0.25
CN1CCOC(CNC(=O)C2(C)C(c3ccc(Cl)o3)C(c3ccc(F)cc3F)=NN2c2ccc(F)cc2F)C1 (stereo not drawn) [Compound 135, 4-(5-chlorofuran-2-yl)-1,3-bis(2,4-difluorophenyl)-5-methyl-N-((4-methylmorpholin-2-yl)methyl)-4,5-dihydro-1H-pyrazole-5-carboxamide]	< 0.25	< 0.25	< 0.25			
CC(C)(CO)CCCNC(=O)C1(C)C(c2ccc(F)cc2F)=NN(c2ccc(F)cc2F)C1c1ccc(Cl)o1 (stereo not drawn) [Compound 136, 5-(5-chlorofuran-2-yl)-1,3-bis(2,4-difluorophenyl)-N-(5-hydroxy-4,4-dimethylpentyl)-4-methyl-4,5-dihydro-1H-pyrazole-4-carboxamide]	> 2	> 2	1 to 2			
COC(=O)CNC(=O)C1(C)C(c2ccc(F)cc2F)=NN(c2ccc(F)cc2F)C1c1ccc(Cl)o1 (stereo not drawn) [Compound 137, methyl 2-(5-(5-chlorofuran-2-yl)-1,3-bis(2,4-difluorophenyl)-4-methyl-4,5-dihydro-1H-pyrazole-4-carboxamido)acetate]	> 2	> 2	0.5 to 1			
CC(C)(C)OC(=O)N1CCOC(CNC(=O)C2(C)C(c3ccc(Cl)o3)C(c3ccc(F)cc3F)=NN2c2ccc(F)cc2F)C1 (stereo not drawn) [Compound 138, tert-butyl 2-((4-(5-chlorofuran-2-yl)-1,3-bis(2,4-difluorophenyl)-5-methyl-4,5-dihydro-1H-pyrazole-5-carboxamido)methyl)morpholine-4-carboxylate]	> 2	> 2	> 2			
